Measured values taken from US7951359B2, “Compositions and methods for therapy or prevention of chemotherapy-induced neuropathy” (Merck Serono SA, priority 2004, dated 2011).

Assays:
[1] = system: vincristine induced neuropathy; test: Hot plate test in vincristine-treated rats; format: in vivo, rat
Description: (§1) The rat was placed inside a glass cylinder of 17 cm height and 21 cm diameter on a heating-plate maintained at 52° C. (Medite OTS 40, Microm, Francheville, Rhône, France). The animal behavior was observed, particularly the licking of a foot and the adjusted leap. The latency before licking a foot or before jumping to escape the heat (adjusted leap) was recorded. The time needed to feel the thermal pain is related to the thermal sensitivity and tends to increase when thermal sensitivity is altered.

[2] = system: cisplatin induced neuropathy; test: Morphometric analysis, therapeutic treatment of established cisplatin neuropathy; format: in vivo, rat; details: 4-MC 10 μg/kg IP
From the text: The number of degenerated and non-degenerated fibers on the entire surface of each nerve section was counted by an operator in a blinded fashion. All the results (except the data expressed as ratio value) were reported as percentage of changes in reference to the control value.

[3] = system: cisplatin induced neuropathy; format: in vivo, rat; details: 4-MC 10 μg/kg IP daily
Description: Electrophysiological monitoring in cisplatin-induced neuropathy model was carried out as described in Example 17. The objective was to assess the effect of co-administration with IL-6 in cisplatin-induced loss of fiber/nerve function.
(§2) Electrophysiological recordings were performed using a Neuromatic 2000M electromyograph (EMG) (Dantec, Les Ulis, France). Rats were anaesthetized by IP injection of 60 mg/kg ketamine chlorhydrate (Imalgene 500®, Rhône Merieux, Lyon, France). The normal body temperature was maintained around […] with a heating lamp and verified using a contact thermometer (Quick, Bioblock Scientific, Illkirch, France) placed on the tail surface.
(§3) Compound muscle action potential (CMAP) of M wave signal (or electrically evoked muscle potential) was recorded in the gastrocnemius muscle after stimulation of the sciatic nerve. M wave reflects the current developed during the action potential of muscle fibers. A reference electrode and an active needle were placed in the hind paw. A ground needle was inserted on the lower back of the rat. Sciatic nerve was stimulated with a single 0.2 ms pulse at supramaximal intensity. The […] of the motor wave was recorded and expressed in ms.
(§4) Sensitive nerve conduction velocity (SNCV) was also recorded. The tail skin electrodes were placed as follows: a reference needle inserted at the base of the tail and an anode needle placed 30 mm away from the reference needle toward the extremity of the tail. A ground needle electrode was inserted between the anode and reference needles. The caudal nerve was stimulated with a series of 20 pulses (for 0.2 ms) at an intensity of 12.8 mA. The velocity was expressed in m/s.
(§5) H-wave reflex was recorded in the hind footpad muscle after stimulation of the sciatic nerve. A reference electrode and a ground needle were placed on the lower back of the rat. The sciatic nerve was stimulated with a single 0.2 ms pulse at supramaximal intensity. The amplitude (mV) of H wave and the proportion of animal lacking H wave response were the parameters studied.

[4] = system: vincristine induced neuropathy; test: Electromyography (EMG) in vincristine-treated rats; format: in vivo, rat
Description: In parallel to behavioral tests, electrophysiological test as described in Example 17, were carried out to evaluate fiber/nerve function in vincristine-administered rats vis-à-vis rats co-administrated with IL-6.
as §2, §3, §4, §5

[5] = system: cisplatin induced neuropathy; test: Morphometric analysis of sciatic nerve in cisplatin-treated rats, co-administration; format: in vivo, rat; details: 4-MC 10 μg/kg IP daily
Description: The total number of fibers per nerve section was obtained from 3 randomized slices of each sample. The counting was performed on 2 selected fields per slice.

[6] = system: cisplatin induced neuropathy; test: Hot plate test in cisplatin-treated rats, co-administration; format: in vivo, rat; details: 4-MC 10 μg/kg IP daily; 3 weeks
Description: as §1

[7] = system: cisplatin induced neuropathy; test: Hot plate test, therapeutic treatment of established cisplatin neuropathy; format: in vivo, rat; details: 4-MC 10 μg/kg IP daily from day 23; after 2 weeks; p≦0.05
[8] = system: vincristine induced neuropathy; test: Morphometric analysis of sciatic nerve in vincristine-treated rats; format: in vivo, rat
Description: Histomorphometric analyses were carried out as described in Example 18 at the completion of the experiments, to explore morphologic changes occurring in fiber and axon diameter and myelin thickness in rats treated with vincristine and in rats co-administrated with IL-6.
With vincristine, morphometric analysis was performed 2 week after the end of vincristine administration on 3 animals per group. The animals were anesthetized by IP injection of 100 mg/kg Imalgène 500®. A 5 mm segment of sciatic nerve was excised, fixed overnight with 4% glutaraldehyde (Sigma, L'Isle d'Abeau-Chesnes, France) in phosphate buffered saline (PBS) (pH=7.4) and maintained in 30% sucrose and stored at 4° C. until further processing. At the time of use, the nerve sample was post-fixed in 1% osmium tetroxide (Sigma, L'Isle d'Abeau-Chesnes, France) in PBS for 2 h, dehydrated in serial alcohol solution, and embedded in Epon. Embedded tissues were then placed at 70° C. during 3 days to allow polymerization of the tissue wax. Cross sections of 1.5 μm thick were performed and they were stained with a 1% toluidine blue solution (Sigma, L'Isle d'Abeau-Chesnes, France) for 2 min, dehydrated and mounted on Eukitt. Twelve sections per sample were examined using an optical microscope (Nikon, Tokyo, Japan) and analyzed using, a semi-automated digital image analysis software (Biocom, France). The fiber diameter (a), axon diameter (b), and myelin thickness (c) were measured as illustrated below.

[9] = system: cisplatin induced neuropathy; format: in vivo, rat
Description: The drug was diluted in 0.9% sterile aqueous solution of sodium chloride.
4-MC was diluted in 0.9% sterile aqueous solution of sodium chloride and injected daily via IP route from day 23 to the end of the experiment.
Electrophysiological tests described in Example 17, were carried out in parallel to the behavioral tests (described in the preceding example) in cisplatin-established neuropathy model. The objective was to assess the therapeutic effect of IL-6 in cisplatin-induced loss of fiber/nerve function.
as §2, §4, §5

taxol induced neuropathy = test: Electrophysiological monitoring in taxol induced neuropathy, co-administration; format: in vivo, rat
Description: The aim of the following experiment was to investigate the potential neuroprotective effect of IL6 in an additional model of chemotherapeutic induced neuropathy mediated by taxol. The potential preventive effect of IL-6 co-administration was tested. Administration of IL-6 was initiated together with taxol administration. The doses of IL-6 of 3 and 10 μg/kg were administered daily or in the case 10 μg/kg also only 3 times per week.
Females 10 weeks old aged Dark Agouti rats were used, 12 animals per group were included as following
The taxol was diluted in a solution of cremophor/ethanol/dextrose 5% and administered twice a week during 4 weeks.
4-MC and test compounds treatment was initiated the first day of intoxication and was stopped at the end of the study.
The study was performed on 8 weeks (1 week for the baseline, 4 weeks for the taxol intoxication and 3 weeks of recovery).
Control, taxol, and taxol-IL-6 co-administered group of rats at the indicated doses were subjected to electrophysiological monitoring to assess the effect of IL-6 in taxol-induced loss of fiber/nerve function.
as §4
H-wave reflex was recorded in the hind footpad muscle after stimulation of the sciatic nerve. […] The sciatic nerve was stimulated with a single 0.2 ms pulse at supramaximal intensity. The amplitude (mV) of H wave and the proportion of animal lacking H wave response were the parameters studied.

[10] = system: breast (MCF7) tumor cell line; test: Cell survival by acid phosphatase activity assay, MCF7; format: cell-based, human; details: 4 days; for decrease in cell survival versus control: cisplatin (2.5 μM), carboplatin (25 μM)
Description: (§6) The human lung (SK-MES1) and breast (MCF7) tumor cell lines were obtained from ATCC. The cell lines were maintained in Dulbecco's MEM medium (Gibco; Invitrogen, Cergy-Pontoise, France, ref. 41965039) supplemented with 1% antibiotic/antimicotic mixture solution (Gibco, ref. 15240062), and 10% heat-inactivated foetal bovine serum (Gibco, ref. F7524, batch 92K3387). The cells were amplified in Nunc tissue culture flasks (80 cm2) in a humidified incubator at 37° C. with 5% CO2 in 95% air. Cultures were sub-cultured twice a week.
(§7) The enzymatic activity has been proven to be proportional to the number of living cells (Ueda et al.; 1994).
(§8) Three days after the last replication, tumor cells were seeded in 96 well-plates (TPP, VWR International, Fontenay-sous-bois, France) at a density of 1,500 cells (MCF7 line) or 3,000 cells (SK-MES1 line) per well, in a total volume of 100 μl/well and incubated overnight in a humidified incubator at 37° C. with 5% CO2 in 95% air. […] IL-6 (in buffer solution at 1.8 mg/ml, PH: 7) was immediately added at concentrations of 0, 3, 12, 50 or 200 ng/ml.
(§9) Four days after the initiation of the intoxication, acid phosphatase activity (Example 21) in each cell culture was assessed.
(§10) After removal of the culture medium, cells were rinsed with phosphate-buffered saline (PBS, Gibco, ref. 14190-094) and further incubated for 90 min at 37° C. in 100 μl of buffer containing 0.1 mol/l sodium acetate (pH 5.5), 0.1% Triton X100 (Sigma, ref. T9284) and 10 mmol/l p-nitrophenyl phosphate (Sigma, ref. N9389). Reaction was stopped by addition of 10 μl of 1 mol/l sodium hydroxide aqueous solution (Laboratoire de Produit Chimiques de la Robertsau, Strasbourg, France; ref. 28.252.293). Absorbance of the colored solution was measured at 405 nm in a microplate reader (Labsystems Multiskan Bichromatic, EST-LAB, Strasbourg, France).
(§11) The results were expressed as percentage of optical density of the control cell cultures. The heights of the columns represent mean±SEM of percentages of 5-6 wells from two independent cultures.

[11] = system: lung (SK-MES1) tumor cell line; test: Cell survival by acid phosphatase activity assay, SK-MES1; format: cell-based, human; details: 4 days; for decrease in cell survival versus control: cisplatin (2.5 μM), carboplatin (25 μM)
Description: as §6, §7, §8, §9, §10, §11

[12] = system: vincristine induced neuropathy; test: Hindpaw skin biopsy, density of dermal nerve fibers in vincristine-treated rats; format: in vivo, rat; details: vincristine intoxication
Description: A 5-10 mm diameter area of skin was punch-biopsied from the hindpaw. Skin samples were immediately fixed overnight in paraformaldehyde at 4° C., incubated (overnight) in 30% sucrose in 0.1 M PBS for cryoprotection, embedded in OCT and frozen at −80° C. until cryocut. 50 μm-thick cryosections were then cut vertical to the skin surface with a cryostat. Free-floating sections were incubated for 7 days in a bath of rabbit anti-protein gene product 9.5 (1:10000; Ultraclone, Isle of Man, UK) at 4° C. The sections were then processed to reveal immunoreactivity according to the ABC peroxidase method. Briefly, they were incubated in for 1 hr with biotinylated anti-goat antibody (1:200), then 30 min in the avidin biotinylated complex at room temperature. Peroxidase activity was visualized using DAB system. Sections were then counterstained with eosin or hematoxylin. Sections were dehydrated, cleared with bioclear and mounted on eukitt. The number of dermal nerves of 3 microscope fields was counted manually under 40 magnification view.

[13] = system: vincristine induced neuropathy; test: Walking test (motor coordination) in vincristine-treated rats; format: in vivo, rat; details: vincristine alone; after 2 and 3 weeks
Description: The motor coordination was assessed using walking test, which consists at measuring the time taken by a rat placed at one extremity of a 100 cm-long horizontal wooden rod of 5.5 cm diameter, 40 cm above the table, to cover a distance of 1 m on this rod. Three tests (maximum duration: 60 s each) were performed, and the mean value was calculated and retained as characteristic value. If the animal fell down, it was scored with a maximum of 60 s.

[14] = Body weight in vincristine induced neuropathy rat model; details: vincristine 0.15 mg/kg, vehicle-treated
Description: The experiments were carried out employing 10 weeks-old female Dark Agouti rats (Janvier, Le Genest-St-Isle, France). […] 4-MC is a standard compound with an established neuroprotective action, used at the dose of 10 μg/kg (n=10).
Vincristine (Tocris, Illkirch, France) was administered by an injection of a vincristine solution from day 0 to 5, from day 8 to 12 and from day 15 to 16 at a dose of 0.15 mg/kg. A vincristine solution (0.03 mg/ml) was prepared in saline.
IL-6 was diluted in saline containing 0.02% BSA and was administered via subcutanuous route every day from the first day of vincristine administration until the end of the experiment.

With Cc1ccc(O)c(O)c1 [4-MC, 4-methylcatechol] the “prevention of vincristine-induced nociception loss (hot plate)” value ([1]; 4-MC 10 μg/kg IP daily) was “did not appear to have any major preventive effect”, the “cisplatin-induced myelin sheath thinning” value [2] was “did not interfere with cisplatin-induced myelin sheath thinning” and the “proportion of degenerated fibers” value ([2]; p>0.05) was “slight but not significant reduction”. The “loss of H wave induced by cisplatin” value [3] was “only a delayed and transient effect”, the “decrease in SNCV by cisplatin” value ([3]; only after 5 weeks) was “transiently prevented the decrease in SNCV” and the “protection against loss of M wave amplitude” value ([4]; 4-MC 10 μg/kg IP daily with vincristine) was “protect the loss of M wave amplitude only transiently”. For the same compound, the “cisplatin-induced decrease in fiber or axon diameter” value [5] was “protected against the decrease in cisplatin-induced fiber diameter or axon”, the “loss of myelin wall by cisplatin” value [5] was “significant protection against loss of myelin wall” and the “first reaction time versus cisplatin alone” value [6] was “slight but not significant decrease”. For the same compound, the “time of the first reaction to heat” value [7] was “Reduction of the time of the first reaction to heat”, the “decrease in axon diameter by vincristine” value ([8]; 4-MC 10 μg/kg IP daily) was “significantly reduced/prevented the decrease in axon diameter” and the “percentage of degenerated fibers in vincristine treated rats” value ([8]; 4-MC 10 μg/kg IP daily) was “decreased the percentage of degenerated fibers”. For the same compound, the vincristine-induced fiber shrinkage ([8]; 4-MC 10 μg/kg IP daily) was “protected”, the “cisplatin-induced H wave loss in amplitude” value ([9]; 4-MC 10 μg/kg IP daily from day 23) was “reversed the cisplatin-induced H wave loss in amplitude” and the “SNCV in cisplatin-treated animals” value ([9]; 4-MC 10 μg/kg IP, significant only 2 weeks after treatment initiation) was “appeared to improve SNCV”. The “prevention of H-wave amplitude reduction by taxol” value (taxol induced neuropathy; 4-MC 10 μg/kg daily i.p.) was “not significant” and the “H wave latency under taxol” value (taxol induced neuropathy; 4-MC 10 μg/kg daily i.p., weeks 3, 5, 6 and 7) was “improvement in H wave latency”.

For N.N.O=C([O-])C1(C(=O)[O-])CCC1.[Pt+2] [carboplatin], the “decrease in cell survival versus control” value [10] was “about 50%” and the “decrease in cell survival versus control” value [11] was “about 50%”.

With CC(=O)O[C@H]1C(=O)[C@@]2(C)[C@H]([C@H](OC(=O)c3ccccc3)[C@]3(O)C[C@H](OC(=O)[C@H](O)[C@@H](NC(=O)c4ccccc4)c4ccccc4)C(C)=C1C3(C)C)[C@]1(OC(C)=O)CO[C@@H]1C[C@@H]2O [taxol] the “decrease in cell survival” value ([10]; taxol 30 nM) was “about 55%”, the “decrease of cell survival” value ([11]; taxol, 'this concentration' (30 nM)) was “about 70%” and the “SNCV versus non-treated control” value (taxol induced neuropathy; taxol alone, 3 weeks) was “significantly slower”. For the same compound, the H wave latency (taxol induced neuropathy; taxol alone, 3 weeks after taxol treatment) was “significant increase” and the H wave latency (taxol induced neuropathy; taxol alone, 6 weeks after taxol treatment) was “dramatically increased”.

In the case of CC[C@]1(O)C[C@H]2CN(CCc3c([nH]c4ccccc34)[C@@](C(=O)OC)(c3cc4c(cc3OC)N(C=O)[C@H]3[C@@](O)(C(=O)OC)[C@H](OC(C)=O)[C@]5(CC)C=CCN6CC[C@]43[C@@H]65)C2)C1 [vincristine], the “decrease in the density of epidermal nerve fibers” value [12] is reported as “more than 50%”, the “decrease in cell survival versus control” value [10] is reported as “about 50%” and the “decrease in cell survival versus control” value [11] is reported as “about 50%”. The “hot plate first reaction to heat versus control” value ([1]; vincristine alone, significant at 3 and 5 weeks) was “delayed first reaction to heat”, the “walking test performance versus non-treated controls” value [13] was “significantly reduced” and the “loss of M wave amplitude versus control” value ([4]; vincristine alone, 2 weeks) was “about 20%”. For the same compound, the “loss of SNCV” value ([4]; vincristine alone, 5 weeks after treatment initiation) was “about 10 m/s”, the “body weight lost at completion of vincristine administration” value [14] was “about 10%” and the axon diameter ([8]; vincristine alone) was “significantly decreases”. The “myelin thickness versus control” value ([8]; vincristine alone) was “significantly reduced”, the “percentage of degenerated fibers versus control” value ([8]; vincristine alone) was “two times higher” and the “percentage of myelinated fibers versus control” value ([8]; vincristine alone) was “less than that in the control non-treated group”. The “sciatic nerve fiber diameter versus control” value ([8]; vincristine alone) was “significant decrease in fiber diameter”.
